Data published in patent US11376231B2, “Compositions of bioactive fulvate fractions and uses thereof” (OMNI BIOCEUTICAL INNOVATIONS, INC., priority 2016, dated 2022).
Read-outs that look alike come from different tables or passages of the source. Ends that are not written are not given here.

Experiments:
chronic wounds = tested on: chronic wounds; parameters: key: N.S. = not statistically significant; details: cited from earlier work
CBA Epidermal Culture = assay: Tissue repair in human epidermal cell culture with 4-mm defect (bFGF, M-007); type: cell-based
Description: A 4-mm mucosal defect was surgically made in the CBA Epidermal Culture. The formulation Sol. of bFGF, M-007, and control saline was injected along the edge of the wound defect immediately after scratch. The control group received only phosphate-buffered saline vehicle.
By day 5, FGFR1-positive cells were seen below the stratum corneum, even in the control group. […] Each sample was repeated in duplicate, thus FIG. 2 represents the average of each sample. P1-2 are control plates 1 and 2 and are epidermal cell culture with no external treatment. P3-4 is epidermal cell culture treated with phosphate buffered saline only. P5-6 is epidermal cell culture treated with bFGF. P7-8 is epidermal cell culture treated with bFGF sol. No. 00376. […] No. 00321A. […] No. 0032113. […] No. 00321A @ 70/30 ratio. […] No. 00321A @ 30/70 ratio. […] No. 00321A 70/30 ratio. P21-22 is epidermal cell culture treated with bFGF sol. […] No. 00321A @50/50 ratio. P23-24 is epidermal cell culture treated with bFGF sol. […] No. 00321A @30/70 ratio.

human keratinocytes = assay: Stimulation of keratinocytes: expression of antimicrobial peptides/polypeptides (Northern blot, ELISA, immunoblot, immunostaining); type: cell-based; details: for expression of the antimicrobial peptides/polypeptides hCAP-18, hBD-3, NGAL, and SLPI: human keratinocytes; for mRNA for hBD-3 (induction): not detected in unstimulated cells
Description: SDS-PAGE and immunoblotting were performed with Bio-Rad systems according to instructions given by the manufacturer (Bio-Rad, Hercules, Calif.). For immunoblotting, after the transfer of proteins from the 14% polyacrylamide gels, the polyvinylidene difluoride (PVDF) membranes (Millipore, Bedford, Mass.) were blocked for 1 h with 5% skimmed milk in PBS. For detection of hCAP-18, NGAL, and SLPI, the PVDF membranes were incubated overnight with primary antibodies. The following day, the membranes were washed and incubated for 2 h with alkaline phosphatase-conjugated secondary antibodies (DAKO, Glostrup, Denmark) then washed and visualized by 5'-bromo-chloro-indolyl phosphate (Sigma-Aldrich) and nitro blue tetrazolium (Sigma-Aldrich). Medium from keratinocytes was extracted with MacroPrep CM Support beads (Bio-Rad) overnight at 4° C. The beads were subsequently washed and bound material was eluted with 30% acetic acid. The eluted material was dialyzed in 5% acetic acid and lyophilized before resuspension in sample buffer for acid urea (AU)-PAGE. AU-PAGE and immunoblotting were performed according to instructions given by the manufacturer (Hoeffer, San Francisco, Calif.). After transfer of proteins from the 12.5% acrylamide gels, the PVDF membranes were fixed for 30 min in TBS with 0.05% glutaraldehyde (Sigma-Aldrich), followed by blocking with Superblock Blocking Buffer (Pierce, Rockford, Ill.). For visualization of hBD-3, the PVDF membranes were incubated overnight with primary antibodies. The following day, the membranes were incubated for 2 h with HRP-conjugated secondary antibodies, (Pierce) and visualized by Immun-Star HRP luminal/enhancer and Immun-Star peroxide buffer (Bio-Rad). Cells were grown in serum-free keratinocyte medium from Clonetics (KGM-2 Bullet Kit; San Diego, Calif.) with bovine pituitary extract, transferrin, human epidermal growth factor (EGF), hydrocortisone, gentamicin, amphotericin B, and epinephrine, but without insulin. Cells were stimulated beginning 24 h after complete confluence was reached. Cells and medium was harvested 0, 3, 6, 12, 24, and 48 h after stimulation with IGF-I (100 ng/mL), TGF-α (50 ng/mL), TGF-β1 (10 ng/mL), hFGF (100 ng/mL), IGF-I/TGF-α, IL-1β (20 ng/mL), IL-6 (100 ng/mL), EGF (100 ng/mL), and INF-α (20 ng/mL). […] The RNA was transferred to a Hybond-N membrane (Amersham Pharmacia Biotech, Little Chalfont, U.K.) by capillary blotting and was fixed by UV irradiation. The filters were pre-hybridized for a minimum of 30 min at 42° C. in 10 mL of ULTRAhyb (Ambion, Austin, Tex.) and hybridized overnight at 42° C. after the addition of an additional 5 mL of ULTRAhyb containing the P-labeled probe. The membranes were washed twice for 5 min each time at 42° C. in 2×SSC (1×SSC=150 mM NaCl/15 mM sodium citrate, pH 7.0)/0.1% SDS, followed by twice for 15 min each time in 2×SSC/0.1% SDS, once for 15 min in 0.2×SSC/0.1% SDS, and once for 15 min in 0.1×SSC/0.1% SDS at 42° C. The blot was developed and quantified by a phosphorimager (Fuji Imager Analyzer BAS-2500, Image Reader version 1.4E, image Gauge version 3.01 software; Fuji, Stockholm, Sweden). The sizes of the mRNAs were determined by reference to 18S and 285 rRNA, which were visualized by ethidium bromide staining. The membranes were stripped by boiling in 0.1% SDS before re-hybridization. The probes used for hybridization were cDNA fragments radiolabeled with [α-P]dCTP using the Random Primers DNA Labeling System (Life Technologies). The probes NGAL, hCAP-18, hBD-2, and β-actin have previously been described. The probes for SLPI, hBD-1, and hBD-3 were amplified from cDNA from keratinocytes with the following primers: SLPI, [NT] II) NO: 1), and [NT] ID NO: 2); hBD-1, [NT] ID NO: 3), and [NT] ID NO: 4); and hBD-3, [NT] ID NO: 5), and [NT] ID NO: 6). The probe for hBD-4 was amplified from genomic DNA using the following primers: [NT] ID NO: 7) and [NT] II) NO: 8). PCR-amplified probes were cloned into plasmids and verified by DNA sequencing. […]

skin wounds = assay: Screen of tigerinin-based peptides for wound-healing ability
Excerpt: Two antimicrobial peptides (tigerinin-RC1: […] (SEQ ID NO: 9); tigerinin-RC2: […] (SEQ ID NO: 10)) have been previously identified from the skin secretions of Fejervarya cancrivora. […] Here, several peptides based on tigerinins are synthesized to screen candidates containing potential wound-healing ability.

Substance: IL-1B: interleukin-1B
- Results (chronic wounds; pressure (25), 0.01, 0.1, and 1 μg/cm^2 daily, Robson et al.): N.S.

Substance: bFGF: basic fibroblast growth factor
- collagen maturation (histologic analysis) (CBA Epidermal Culture): relatively faster
- granular tissue formation and re-epithelialization (CBA Epidermal Culture): significantly accelerated
- number and intensity of FGFR1-positive cells versus control group (CBA Epidermal Culture; day 5): greater than in the control group
- Results (chronic wounds; diabetic (17), 0.25 to 0.75 μg/cm^2 daily, Richard et al.): N.S.
- Results (chronic wounds; pressure (50), 1, 5, and 10 μg/cm^2, Robson et al.): N.S.

Substance: TGF-α: a transforming growth factor
- expression of the antimicrobial peptides/polypeptides hCAP-18, hBD-3, NGAL, and SLPI (human keratinocytes): induce or enhance
- mRNA for hBD-3 (induction) (human keratinocytes; keratinocytes): significantly induced
- hBD-3 in the medium by immunoblot (human keratinocytes; medium from stimulated keratinocytes, not in unstimulated cells): detected

Substance: EGF: epidermal growth factor (NSDSECPLSHDGYCLHDGVCMYIEALDKYACNCVVGYIGERCQYRDLKWWELR; UniProt P01133 971-1023, looked up)
- Results (chronic wounds; venous (44), 10 μg/mL twice per day, Falanga et al.): N.S.

Substance: IGF-I: insulin growth factor-1
- expression of hBD-1 relative to the housekeeping gene β-actin (human keratinocytes; 24 h): 3 fold
- expression of hBD-1 relative to the housekeeping gene β-actin (human keratinocytes; 48 h): 7 fold
- expression of the antimicrobial peptides/polypeptides hCAP-18, hBD-3, NGAL, and SLPI (human keratinocytes): induce or enhance
- hCAP-18 at the protein level (ELISA) and the mRNA level (human keratinocytes; keratinocytes): up-regulated
- mRNA for hBD-3 (induction) (human keratinocytes; keratinocytes): did not induce

Substance: GM-CSF: granulocyte-macrophage colony-stimulating factor
- Results (chronic wounds; venous + arterial (25), 400 μg injected once around the wound, da Costa et al.): N.S.

Substance: HGH: human growth hormone
- Results (chronic wounds; venous (37), 1 IU/cm^2 per week, Rasmussen et al.): N.S.

Substance: c [WCKPKPKPRCH-NH2] (SEQ ID NO: 11) (not fully specified (bridges); also: cyclic, ring type and places not given here; listed as Fejervarya cancrivora) [M-007 fulvate isolated peptide, tigerinin-based synthesized small peptide]
- wound-healing ability (skin wounds): potent healer of skin wounds
